Literature values in patent US20110281920A1, “INJECTABLE PARASITICIDAL FORMULATIONS OF LEVAMISOLE AND MACROCYCLIC LACTONES” (priority 2010, published 2011).

Tests used:
[1] = lactating mammals; ratio of 1 = even distribution between milk and plasma

| Molecule | Solubility in water | milk to plasma partition ratio [1] |
| --- | --- | --- |
| c1ccc([C@H]2CN3CCSC3=N2)cc1 [Levamisole] | water soluble | – |
| eprinomectin | nearly water insoluble | ~0.2 |
